pEC50, pIC50: −log10 of the molar value.

In one assay the target is T1, Progesterone receptor (Homo sapiens, UniProt P06401).
T1 sequence (P06401 whole entry): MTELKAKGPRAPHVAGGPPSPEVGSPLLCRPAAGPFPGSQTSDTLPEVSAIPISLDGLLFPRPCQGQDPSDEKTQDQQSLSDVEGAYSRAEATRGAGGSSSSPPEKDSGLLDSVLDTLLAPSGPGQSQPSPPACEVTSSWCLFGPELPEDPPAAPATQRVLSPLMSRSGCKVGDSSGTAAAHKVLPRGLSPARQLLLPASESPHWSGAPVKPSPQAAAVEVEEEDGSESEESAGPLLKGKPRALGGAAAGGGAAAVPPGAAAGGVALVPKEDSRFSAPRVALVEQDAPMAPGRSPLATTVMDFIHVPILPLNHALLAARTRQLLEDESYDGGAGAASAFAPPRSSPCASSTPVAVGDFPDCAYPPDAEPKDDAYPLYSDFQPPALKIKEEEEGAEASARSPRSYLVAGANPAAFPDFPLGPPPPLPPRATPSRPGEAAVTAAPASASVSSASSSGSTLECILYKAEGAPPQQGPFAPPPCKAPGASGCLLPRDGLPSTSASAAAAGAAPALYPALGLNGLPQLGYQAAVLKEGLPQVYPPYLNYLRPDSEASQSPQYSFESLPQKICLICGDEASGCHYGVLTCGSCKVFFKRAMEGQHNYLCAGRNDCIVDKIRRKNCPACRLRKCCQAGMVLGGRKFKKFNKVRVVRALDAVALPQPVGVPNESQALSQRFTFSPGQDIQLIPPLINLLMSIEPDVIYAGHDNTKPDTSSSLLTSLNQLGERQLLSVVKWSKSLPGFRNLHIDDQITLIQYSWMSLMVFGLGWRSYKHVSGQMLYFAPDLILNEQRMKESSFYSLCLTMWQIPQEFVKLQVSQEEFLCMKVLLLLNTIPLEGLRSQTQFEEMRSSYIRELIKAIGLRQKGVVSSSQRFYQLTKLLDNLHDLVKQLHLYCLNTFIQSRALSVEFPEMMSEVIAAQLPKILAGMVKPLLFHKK
Description: Binding affinity towards progesterone receptor using fluorescence polarization competitive binding assay.

The target in assay [1] is T2, Glucocorticoid receptor (Homo sapiens, UniProt P04150).
T2 sequence (P04150 whole entry): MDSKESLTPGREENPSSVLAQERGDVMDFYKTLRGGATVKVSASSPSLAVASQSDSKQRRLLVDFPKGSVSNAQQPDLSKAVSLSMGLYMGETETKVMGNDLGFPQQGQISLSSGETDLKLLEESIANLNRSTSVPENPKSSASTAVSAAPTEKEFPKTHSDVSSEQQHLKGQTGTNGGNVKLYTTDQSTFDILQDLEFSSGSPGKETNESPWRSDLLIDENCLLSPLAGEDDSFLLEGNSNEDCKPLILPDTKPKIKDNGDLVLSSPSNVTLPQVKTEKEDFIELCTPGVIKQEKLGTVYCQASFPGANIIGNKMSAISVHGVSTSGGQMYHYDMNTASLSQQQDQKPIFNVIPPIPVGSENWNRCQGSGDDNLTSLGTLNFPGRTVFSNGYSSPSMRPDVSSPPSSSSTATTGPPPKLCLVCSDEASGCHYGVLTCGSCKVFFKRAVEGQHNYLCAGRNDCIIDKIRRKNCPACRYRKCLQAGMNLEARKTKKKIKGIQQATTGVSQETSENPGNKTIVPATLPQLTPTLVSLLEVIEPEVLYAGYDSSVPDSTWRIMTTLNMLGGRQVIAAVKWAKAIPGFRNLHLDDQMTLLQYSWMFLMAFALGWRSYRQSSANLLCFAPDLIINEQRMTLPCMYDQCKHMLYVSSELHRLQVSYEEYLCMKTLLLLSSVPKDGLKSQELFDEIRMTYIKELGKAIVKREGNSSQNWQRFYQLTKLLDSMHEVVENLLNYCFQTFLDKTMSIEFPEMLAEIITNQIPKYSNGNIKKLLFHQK
The assay is described as follows: Binding affinity towards glucocorticoid receptor using fluorescence polarization competitive binding assay.

Assay [2] addresses T3, Mineralocorticoid receptor (Homo sapiens, UniProt P08235).
T3 sequence (P08235 whole entry): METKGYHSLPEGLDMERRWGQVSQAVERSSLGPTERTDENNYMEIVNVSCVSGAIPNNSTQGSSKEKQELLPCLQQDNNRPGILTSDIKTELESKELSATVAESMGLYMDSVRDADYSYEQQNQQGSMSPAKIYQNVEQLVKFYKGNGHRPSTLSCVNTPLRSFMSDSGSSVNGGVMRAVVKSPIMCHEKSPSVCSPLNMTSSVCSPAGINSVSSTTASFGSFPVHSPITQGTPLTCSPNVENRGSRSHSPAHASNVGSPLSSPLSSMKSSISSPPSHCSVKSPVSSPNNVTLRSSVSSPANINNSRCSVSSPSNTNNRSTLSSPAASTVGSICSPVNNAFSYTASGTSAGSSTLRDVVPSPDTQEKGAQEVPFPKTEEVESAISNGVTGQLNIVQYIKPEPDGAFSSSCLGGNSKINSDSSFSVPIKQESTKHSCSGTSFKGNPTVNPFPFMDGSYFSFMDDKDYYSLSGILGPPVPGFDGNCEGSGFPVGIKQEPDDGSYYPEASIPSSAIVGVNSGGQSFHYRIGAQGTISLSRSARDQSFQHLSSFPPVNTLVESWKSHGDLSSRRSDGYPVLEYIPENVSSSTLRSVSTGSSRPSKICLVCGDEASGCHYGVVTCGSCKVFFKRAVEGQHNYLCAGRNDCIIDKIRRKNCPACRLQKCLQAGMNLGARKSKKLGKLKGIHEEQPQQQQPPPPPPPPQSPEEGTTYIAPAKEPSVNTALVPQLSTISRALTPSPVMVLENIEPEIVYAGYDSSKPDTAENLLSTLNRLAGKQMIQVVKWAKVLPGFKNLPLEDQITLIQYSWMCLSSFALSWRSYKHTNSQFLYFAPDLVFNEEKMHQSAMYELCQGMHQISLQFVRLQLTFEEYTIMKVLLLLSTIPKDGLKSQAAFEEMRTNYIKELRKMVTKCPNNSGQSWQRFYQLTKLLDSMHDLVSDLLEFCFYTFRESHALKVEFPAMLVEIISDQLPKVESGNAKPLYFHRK
The assay is described as follows: Binding affinity towards mineralocorticoid receptor using fluorescence polarization competitive binding assay.

Assay [3] concerns the target T2, Glucocorticoid receptor. The assay is described as follows: Effective concentration against inhibition of Dexamethasone induced glucocorticoid receptor transactivation of mouse mammary tumor virus luciferase gene in HeLa cells. The class given is cell-based.

Turning to `CC(C)(CC(O)(C(=O)Nc1ccc2c(c1)COC2=O)c1ccccc1)c1ccccc1` (configuration not stated), the pIC50 at Progesterone receptor was 6.62; on Glucocorticoid receptor [1] it was 6.34.
The matching figures for `COc1ccc(F)cc1C(C)(C)CC(O)(C(=O)Nc1ccc2c(c1)COC2=O)C(F)(F)F` (configuration not stated): 7.07 and 6.64.
In the case of `CC(O)(CC(C)(C)c1ccccc1)C(=O)Nc1ccc2c(c1)COC2=O` (configuration not stated), the pIC50 was 7.22 in assay [2], 7.07 at Progesterone receptor and 6.43 on Glucocorticoid receptor [1]. The molecule further had a pEC50 at Glucocorticoid receptor [3] of 5.63.
In the case of `CC(C)(CC(O)(CC1CCCCC1)C(=O)Nc1ccc2c(c1)COC2=O)c1ccccc1` (stereo in doubt), the figures for the pIC50 on Progesterone receptor and on Glucocorticoid receptor [1] were 6.68 and 6.49, respectively.
As for `CC(C)(CC(O)(Cc1cccc(O)c1)C(=O)Nc1ccc2c(c1)COC2=O)c1ccccc1` (configuration not stated), the values for the pIC50 at Progesterone receptor and at Glucocorticoid receptor [1] were 7.36 and 6.92, respectively.
As to `CC(C)C(O)(CC(C)(C)c1ccccc1)C(=O)Nc1ccc2c(c1)COC2=O` (configuration not stated), the pIC50 in assay [2] was 6.50; on Progesterone receptor, 6.68; on Glucocorticoid receptor [1], 6.70. This molecule gave a negative logarithm of the EC50 (pEC50) at Glucocorticoid receptor [3] of 6.21.
Consider `Cc1noc(=O)c2ccc(NC(=O)C(O)(CC3CCCCC3)CC(C)(C)c3ccccc3)cc12` (configuration not stated), for which the pIC50 at Progesterone receptor is 7.40; on Glucocorticoid receptor [1], 8.05.
As for `CC(C)(CC(O)(Cc1ccccc1)C(=O)Nc1ccc2c(c1)COC2=O)c1cc(F)ccc1O` (configuration not stated), the pIC50 in assay [2] was 6.72; on Progesterone receptor, 7.46; on Glucocorticoid receptor [1], 7.22. On Glucocorticoid receptor [3], this molecule had a negative-log EC50 (pEC50) of 6.38.
With `CC(C)(CC(O)(Cc1cc(O)cc(O)c1)C(=O)Nc1ccc2c(c1)COC2=O)c1ccccc1` (configuration not stated), the pIC50 is 6.80 at Progesterone receptor and < 5.70 on Glucocorticoid receptor [1].
In the case of `CC(C)(CC(O)(CC1CCCCC1)C(=O)Nc1ccc2c(c1)COC2=O)c1ccccc1` (single isomer, unassigned), the results for the pIC50 at Progesterone receptor and at Glucocorticoid receptor [1] were 7.46 and 8.05, respectively.
For `CC(C)(CC(O)(Cc1ccccc1O)C(=O)Nc1ccc2c(c1)COC2=O)c1ccccc1` (configuration not stated), the pIC50 at Progesterone receptor was 7.33; on Glucocorticoid receptor [1], 7.21.
As for `CC(C)(CC(O)C(=O)Nc1ccc2c(c1)COC2=O)c1ccccc1` (configuration not stated), the pIC50 on Progesterone receptor and at Glucocorticoid receptor [1] was < 5.70 in each case.
Take `CC(C)(C)c1ccc(CC(O)(CC(C)(C)c2ccccc2)C(=O)Nc2ccc3c(c2)COC3=O)cc1` (configuration not stated): the pIC50 in assay [2] is 6.76; at Progesterone receptor, 6.48; at Glucocorticoid receptor [1], 7.14. For the same molecule, the pEC50 on Glucocorticoid receptor [3] was 6.12.
Consider `Cc1cc(C)cc(CC(O)(CC(C)(C)c2cc(F)ccc2O)C(=O)Nc2ccc3c(c2)COC3=O)c1` (configuration not stated), for which the pIC50 is 7.29 on Progesterone receptor and 6.33 at Glucocorticoid receptor [1].
`CC(C)(CC(O)(Cc1ccccn1)C(=O)Nc1ccc2c(c1)COC2=O)c1ccccc1` (configuration not stated): the values for the pIC50 at Progesterone receptor and at Glucocorticoid receptor [1] were 6.40 and 6.12, respectively.
In the case of `CC(C)(CC(O)(CC1CCCCC1)C(=O)Nc1ccc2c(c1)COC2=O)c1ccccc1` (stereo in doubt; 6), the values for the pIC50 (in assay [2]; on Progesterone receptor; at Glucocorticoid receptor [1]) were 6.77, 7.72 and 8.05, respectively. For the same molecule, at Glucocorticoid receptor [3], the pEC50 was 6.85.
As for `Cc1noc(=O)c2ccc(NC(=O)C(O)(Cc3ccccc3)CC(C)(C)c3ccccc3)cc12` (configuration not stated), the negative logarithm of the IC50 (pIC50) at Progesterone receptor was 7.52; at Glucocorticoid receptor [1] it was 8.15.
Turning to `CC(C)(CC(O)(CC1CCCCC1)C(=O)Nc1ccc2c(c1)COC2=O)c1cc(F)ccc1O` (configuration not stated), the results for the pIC50 (in assay [2]; at Progesterone receptor; on Glucocorticoid receptor [1]) were 6.85, 7.38 and 7.70, respectively. Further, the pEC50 on Glucocorticoid receptor [3] is 6.89.
On to `COc1ccc(F)cc1C(C)(C)CC(O)(CNc1ccc2c(c1)COC2=O)Cc1ccccc1` (configuration not stated), for which the pIC50 in assay [2] was 6.71; at Progesterone receptor, 7.10; at Glucocorticoid receptor [1] it was 7.09. This molecule had a negative-log EC50 (pEC50) on Glucocorticoid receptor [3] of 6.21.
Turning to `Cc1noc(=O)c2ccc(NC(=O)C(O)(Cc3ccccc3)CC(C)(C)c3cc(F)ccc3O)cc12` (configuration not stated), the figures for the pIC50 (in assay [2]; on Progesterone receptor; at Glucocorticoid receptor [1]) were 6.98, 7.49 and 8.10, respectively. This molecule had a pEC50 on Glucocorticoid receptor [3] of 6.89.
For `CC(C)(CC(O)(Cc1ccc2ccccc2c1)C(=O)Nc1ccc2c(c1)COC2=O)c1ccccc1` (configuration not stated), the pIC50 is 7.32 on Progesterone receptor and 6.96 on Glucocorticoid receptor [1].
For `CC(C)(CC(O)(Cc1ccc(-c2ccccc2)cc1)C(=O)Nc1ccc2c(c1)COC2=O)c1ccccc1` (configuration not stated), the pIC50 is 6.74 on Progesterone receptor and 6.13 on Glucocorticoid receptor [1].
`CC(C)(CC(Cc1ccccc1)C(=O)Nc1ccc2c(c1)COC2=O)c1ccccc1` (configuration not stated): the negative logarithm of the IC50 (pIC50) is 5.70 on Progesterone receptor and < 5.70 at Glucocorticoid receptor [1].
The matching figures for `CC(C)(CC(O)(CCc1ccccc1)C(=O)Nc1ccc2c(c1)COC2=O)c1ccccc1` (configuration not stated): 7.23 and 7.24.
With `CC(C)(CC(O)(C(=O)Nc1ccc2c(c1)COC2=O)C(F)(F)F)c1ccccc1` (configuration not stated), the pIC50 was 6.67 in assay [2], 7.44 on Progesterone receptor and 7.10 on Glucocorticoid receptor [1]. On Glucocorticoid receptor [3], this molecule showed a negative-log EC50 (pEC50) of 6.82.
As for `CC(C)(CC(O)(Cc1ccccc1)C(=O)Nc1ccc2c(c1)COC2=O)c1ccccc1` (configuration not stated), the pIC50 was 6.80 in assay [2], 7.52 on Progesterone receptor and 7.89 at Glucocorticoid receptor [1]. This molecule had a pEC50 on Glucocorticoid receptor [3] of 6.69.
With `Cc1noc(=O)c2ccc(NC(=O)C(O)(CC3CCCCC3)CC(C)(C)c3cc(F)ccc3O)cc12` (configuration not stated), the pIC50 in assay [2] was 6.98; on Progesterone receptor, 7.46; at Glucocorticoid receptor [1], 8.15. The same molecule showed a pEC50 at Glucocorticoid receptor [3] of 6.92.
As for `COc1ccc(F)cc1C(C)(C)CC(O)(Cc1ccccc1)C(=O)Nc1ccc2c(c1)COC2=O` (configuration not stated), the pIC50 on Progesterone receptor is 7.46; at Glucocorticoid receptor [1] it was 7.28.
Take `Cc1ccccc1CC(O)(CC(C)(C)c1cc(F)ccc1O)C(=O)Nc1ccc2c(c1)COC2=O` (configuration not stated): the negative-log IC50 (pIC50) at Progesterone receptor was 7.44; at Glucocorticoid receptor [1], 7.32.
Take `Cc1cccc(CC(O)(CC(C)(C)c2cc(F)ccc2O)C(=O)Nc2ccc3c(c2)COC3=O)c1` (configuration not stated): the pIC50 is 7.47 on Progesterone receptor and 7.28 at Glucocorticoid receptor [1].

The pIC50 is −log10 of the IC50, conventionally taken in molar units. A word on the pEC50: it is −log10 of the EC50, conventionally taken in molar units. Lower therefore signals a high EC50.

For the origin of these results see ChEMBL document CHEMBL1143464, “Trifluoromethyl group as a pharmacophore: effect of replacing a CF3 group on binding and agonist activity of a glucocorticoid receptor ligand” (Bioorg Med Chem Lett, 2005).
